Measurements: the supplement of paper PMC11451515

What was measured:
Conditions in all cases: 48 h
[1] = tested on: NOMO1; assay: cell viability relative to DMSO control; higher = less cytotoxic
In short: (§1)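 In 1536-well plates, 5 μl of leukemia cells were seeded per well: 500 cells/well for NOMO1 or SEM and 1000 cells/well for P12-Ichikawa. Each line had first been adapted for at least four passages in each medium. Library compounds in DMSO were pin-dosed at 11 threefold concentrations between 47 μM and 0.79 nM, and CellTiter-Glo One luminescence was read after 48 h at 37°C. Viability is a per-plate percentage relative to DMSO wells, with cell-free wells as background.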

[2] = tested on: P12-Ichikawa; assay: as above
In short: as §1

[3] = tested on: SEM cells; assay: as above
In short: as §1

[4] = tested on: NOMO1; assay: AUC of viability dose-response curve (% viability x log10 dose units); higher = less sensitive
In short: (§2)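 Medium-adapted leukemia cells in 1536-well plates, at 500 or 1000 cells/well, were incubated for 48 h at 37°C with library compounds in DMSO at 11 threefold doses from 47 μM to 0.79 nM. CellTiter-Glo One luminescence normalised per plate to DMSO and cell-free wells was fitted with a four-parameter log-logistic model over log10 doses. Area under the curve was integrated from this fit by trapezoidal rule, with curves beyond full viability scaled and failed quality-control curves removed.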

[5] = tested on: P12-Ichikawa; assay: as above
In short: as §2

[6] = tested on: SEM cells; assay: as above
In short: as §2

CN1CCN(C(=O)O[C@H]2c3nccnc3C(=O)N2c2ccc(Cl)cn2)CC1
cell viability [%]
Conditions	[1]	[2]	[3]
HPLM + 10% dialyzed FBS, 0.000781 µM	115	112	103
HPLM + 10% dialyzed FBS, 0.00234 µM	102	108	105
HPLM + 10% dialyzed FBS, 0.00702 µM	119	105	99.8
HPLM + 10% dialyzed FBS, 0.0211 µM	114	111	104
HPLM + 10% dialyzed FBS, 0.0632 µM	114	104	101
HPLM + 10% dialyzed FBS, 0.19 µM	112	110	89
HPLM + 10% dialyzed FBS, 0.569 µM	114	103	108
HPLM + 10% dialyzed FBS, 1.71 µM	101	108	97.9
HPLM + 10% dialyzed FBS, 5.12 µM	91.1	101	105
HPLM + 10% dialyzed FBS, 15.4 µM	98.4	98.2	39.8
HPLM + 10% dialyzed FBS, 46.1 µM	88.1	99.9	95.8
RPMI 5 mM glucose + 10% FBS, 0.000781 µM	94.8	96.8	101
RPMI 5 mM glucose + 10% FBS, 0.00234 µM	99.2	102	106
RPMI 5 mM glucose + 10% FBS, 0.00702 µM	92.4	106	109
RPMI 5 mM glucose + 10% FBS, 0.0211 µM	106	106	111
RPMI 5 mM glucose + 10% FBS, 0.0632 µM	103	101	109
RPMI 5 mM glucose + 10% FBS, 0.19 µM	99.4	106	96.6
RPMI 5 mM glucose + 10% FBS, 0.569 µM	99.4	103	99.9
RPMI 5 mM glucose + 10% FBS, 1.71 µM	97.9	95.5	116
RPMI 5 mM glucose + 10% FBS, 5.12 µM	99.3	93	108
RPMI 5 mM glucose + 10% FBS, 15.4 µM	93.8	95.1	43.4
RPMI 5 mM glucose + 10% FBS, 46.1 µM	84.6	88	89
RPMI 5 mM glucose + 10% dialyzed FBS, 0.000781 µM	97.6	98.6	110
RPMI 5 mM glucose + 10% dialyzed FBS, 0.00234 µM	107	102	105
RPMI 5 mM glucose + 10% dialyzed FBS, 0.00702 µM	103	98.9	113
RPMI 5 mM glucose + 10% dialyzed FBS, 0.0211 µM	94.2	105	111
RPMI 5 mM glucose + 10% dialyzed FBS, 0.0632 µM	99.1	92.9	102
RPMI 5 mM glucose + 10% dialyzed FBS, 0.19 µM	97	102	105
RPMI 5 mM glucose + 10% dialyzed FBS, 0.569 µM	105	101	110
RPMI 5 mM glucose + 10% dialyzed FBS, 1.71 µM	97.2	99.1	110
RPMI 5 mM glucose + 10% dialyzed FBS, 5.12 µM	97	102	103
RPMI 5 mM glucose + 10% dialyzed FBS, 15.4 µM	88.5	93.6	30.6
RPMI 5 mM glucose + 10% dialyzed FBS, 46.1 µM	78.5	85.1	95.6

AUC of viability dose-response curve
Conditions	[4]	[5]	[6]
HPLM + 10% dialyzed FBS	451	468	453
RPMI 5 mM glucose + 10% FBS	467	461	450
RPMI 5 mM glucose + 10% dialyzed FBS	464	470	445

N#C/C(C(=O)c1ccc(Cl)cc1Cl)=C1/NC(=O)c2ccc(Cl)cc2N1
cell viability [%]
Conditions	[1]	[2]	[3]
HPLM + 10% dialyzed FBS, 0.000781 µM	117	114	124
HPLM + 10% dialyzed FBS, 0.00234 µM	108	123	132
HPLM + 10% dialyzed FBS, 0.00702 µM	122	108	124
HPLM + 10% dialyzed FBS, 0.0211 µM	128	115	125
HPLM + 10% dialyzed FBS, 0.0632 µM	130	111	129
HPLM + 10% dialyzed FBS, 0.19 µM	117	111	121
HPLM + 10% dialyzed FBS, 0.569 µM	114	110	123
HPLM + 10% dialyzed FBS, 1.71 µM	105	106	112
HPLM + 10% dialyzed FBS, 5.12 µM	109	103	110
HPLM + 10% dialyzed FBS, 15.4 µM	102	107	117
HPLM + 10% dialyzed FBS, 46.1 µM	106	107	111
RPMI 5 mM glucose + 10% FBS, 0.000781 µM	105	115	–
RPMI 5 mM glucose + 10% FBS, 0.00234 µM	119	119	–
RPMI 5 mM glucose + 10% FBS, 0.00702 µM	111	117	–
RPMI 5 mM glucose + 10% FBS, 0.0211 µM	109	107	–
RPMI 5 mM glucose + 10% FBS, 0.0632 µM	105	106	–
RPMI 5 mM glucose + 10% FBS, 0.19 µM	111	111	–
RPMI 5 mM glucose + 10% FBS, 0.569 µM	103	107	–
RPMI 5 mM glucose + 10% FBS, 1.71 µM	102	103	–
RPMI 5 mM glucose + 10% FBS, 5.12 µM	94.5	105	–
RPMI 5 mM glucose + 10% FBS, 15.4 µM	95.1	105	–
RPMI 5 mM glucose + 10% FBS, 46.1 µM	98.2	94.2	–
RPMI 5 mM glucose + 10% dialyzed FBS, 0.000781 µM	113	106	99.5
RPMI 5 mM glucose + 10% dialyzed FBS, 0.00234 µM	114	106	125
RPMI 5 mM glucose + 10% dialyzed FBS, 0.00702 µM	114	107	131
RPMI 5 mM glucose + 10% dialyzed FBS, 0.0211 µM	104	110	126
RPMI 5 mM glucose + 10% dialyzed FBS, 0.0632 µM	118	112	127
RPMI 5 mM glucose + 10% dialyzed FBS, 0.19 µM	114	98.9	108
RPMI 5 mM glucose + 10% dialyzed FBS, 0.569 µM	107	107	111
RPMI 5 mM glucose + 10% dialyzed FBS, 1.71 µM	103	104	137
RPMI 5 mM glucose + 10% dialyzed FBS, 5.12 µM	110	97.8	79.5
RPMI 5 mM glucose + 10% dialyzed FBS, 15.4 µM	103	101	105
RPMI 5 mM glucose + 10% dialyzed FBS, 46.1 µM	105	98.3	108

AUC of viability dose-response curve
Conditions	[4]	[5]	[6]
HPLM + 10% dialyzed FBS	453	451	459
RPMI 5 mM glucose + 10% FBS	453	440	449
RPMI 5 mM glucose + 10% dialyzed FBS	456	463	454

COc1ccc2cc1Oc1ccc(cc1)C[C@H]1c3cc(c(OC)cc3CCN1C)Oc1c(OC)c(OC)cc3c1[C@H](C2)N(C)CC3
cell viability [%]
Conditions	[1]	[2]	[3]
HPLM + 10% dialyzed FBS, 0.000781 µM	–	113	123
HPLM + 10% dialyzed FBS, 0.00234 µM	–	122	120
HPLM + 10% dialyzed FBS, 0.00702 µM	–	118	135
HPLM + 10% dialyzed FBS, 0.0211 µM	–	118	107
HPLM + 10% dialyzed FBS, 0.0632 µM	–	110	111
HPLM + 10% dialyzed FBS, 0.19 µM	–	114	123
HPLM + 10% dialyzed FBS, 0.569 µM	–	113	108
HPLM + 10% dialyzed FBS, 1.71 µM	–	101	82.6
HPLM + 10% dialyzed FBS, 5.12 µM	–	96.8	130
HPLM + 10% dialyzed FBS, 15.4 µM	–	98.3	102
HPLM + 10% dialyzed FBS, 46.1 µM	–	63.2	86.8
RPMI 5 mM glucose + 10% FBS, 0.000781 µM	109	123	124
RPMI 5 mM glucose + 10% FBS, 0.00234 µM	110	118	122
RPMI 5 mM glucose + 10% FBS, 0.00702 µM	132	115	115
RPMI 5 mM glucose + 10% FBS, 0.0211 µM	111	117	144
RPMI 5 mM glucose + 10% FBS, 0.0632 µM	111	113	127
RPMI 5 mM glucose + 10% FBS, 0.19 µM	116	111	126
RPMI 5 mM glucose + 10% FBS, 0.569 µM	117	112	120
RPMI 5 mM glucose + 10% FBS, 1.71 µM	107	111	88.9
RPMI 5 mM glucose + 10% FBS, 5.12 µM	98.3	103	116
RPMI 5 mM glucose + 10% FBS, 15.4 µM	99.8	91.2	105
RPMI 5 mM glucose + 10% FBS, 46.1 µM	85.1	49.1	72.5
RPMI 5 mM glucose + 10% dialyzed FBS, 0.000781 µM	107	114	125
RPMI 5 mM glucose + 10% dialyzed FBS, 0.00234 µM	120	111	117
RPMI 5 mM glucose + 10% dialyzed FBS, 0.00702 µM	121	115	113
RPMI 5 mM glucose + 10% dialyzed FBS, 0.0211 µM	118	106	125
RPMI 5 mM glucose + 10% dialyzed FBS, 0.0632 µM	113	113	107
RPMI 5 mM glucose + 10% dialyzed FBS, 0.19 µM	119	103	135
RPMI 5 mM glucose + 10% dialyzed FBS, 0.569 µM	111	105	105
RPMI 5 mM glucose + 10% dialyzed FBS, 1.71 µM	108	103	95.6
RPMI 5 mM glucose + 10% dialyzed FBS, 5.12 µM	103	102	114
RPMI 5 mM glucose + 10% dialyzed FBS, 15.4 µM	98.7	95.6	89.5
RPMI 5 mM glucose + 10% dialyzed FBS, 46.1 µM	86.8	58.5	64

AUC of viability dose-response curve
Conditions	[4]	[5]	[6]
HPLM + 10% dialyzed FBS	430	442	423
RPMI 5 mM glucose + 10% FBS	451	447	432
RPMI 5 mM glucose + 10% dialyzed FBS	452	458	441
